From ChEMBL document CHEMBL1201862, “PubChem BioAssay data set” (2004)
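Grown in 96-well plates, cells were treated for 48 hours with each compound at five concentrations. Insufficient inhibition: endpoint recorded as highest concentration tested. GI50: concentration for 50% inhibition of growth.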 Calls of active or inactive are those of the source. No stated cut-off is given here; in the data, active = GI50 up to about 1.1 µM and inactive = higher.

Experiments:
Experiment in all cases: growth of human tumour cells (NCI), 48 h
[1] = system: DU-145
[2] = system: EKVX
[3] = system: HCT-116
[4] = system: HOP-62
[5] = system: HT-29
[6] = system: Hs-578T
[7] = system: KM12
[8] = system: M14
[9] = system: NCI-H460
[10] = system: NCI-H522
[11] = system: NCI/ADR-RES
[12] = system: OVCAR-3
[13] = system: OVCAR-8
[14] = system: SNB-19
[15] = system: SR
[16] = system: UACC-62
[17] = system: A498
[18] = system: HCC 2998
[19] = system: MDA-N

| SMILES | GI50 [1] | GI50 [2] | GI50 [3] | GI50 [4] | GI50 [5] | GI50 [6] | GI50 [7] | GI50 [8] | GI50 [9] | GI50 [10] | GI50 [11] | GI50 [12] | GI50 [13] | GI50 [14] | GI50 [15] | GI50 [16] | GI50 [17] | GI50 [18] | GI50 [19] |
| --- | --- | --- | --- | --- | --- | --- | --- | --- | --- | --- | --- | --- | --- | --- | --- | --- | --- | --- | --- |
| O=C1c2ccsc2-c2cccc3cccc1c23.O=C1c2sccc2-c2cccc3cccc1c23 | 0.65 µM (active) | 0.0132 µM (active) | 2.78 µM (inactive) | 2.67 µM (inactive) | 2.11 µM (inactive) | 0.366 µM (active) | 3.52 µM (inactive) | 18.9 µM (inactive) | 4.94 µM (inactive) | 5.21 µM (inactive) | 3.56 µM (inactive) | 10.5 µM (inactive) | 4.94 µM (inactive) | 2.93 µM (inactive) | 0.203 µM (active) | 4.15 µM (inactive) |  |  |  |
| COC1(OC)CC(CO)(CNc2nc(N)nc(Cl)c2C=O)C1 | 95.9 µM (inactive) | 22.8 µM (inactive) | 39.3 µM (inactive) | 42.5 µM (inactive) | 55.6 µM (inactive) | 39.8 µM (inactive) | 49 µM (inactive) |  | 85.7 µM (inactive) | 1.99 µM (inactive) | 31 µM (inactive) | 39.9 µM (inactive) | 43 µM (inactive) | 43.8 µM (inactive) | 20.1 µM (inactive) |  | > 100 µM (inactive) | 28.1 µM (inactive) |  |
| CC(C)(C)OC(=O)C1C(=O)NC(=O)CC1C(COCc1ccccc1)OCc1ccccc1 (stereo not drawn) | 39.7 µM (inactive) | 25.3 µM (inactive) | 18.6 µM (inactive) | 12.1 µM (inactive) | 18.7 µM (inactive) | 23.1 µM (inactive) | 17.8 µM (inactive) | 18.9 µM (inactive) |  | 15.8 µM (inactive) |  | 21.8 µM (inactive) | 29.3 µM (inactive) | 40.6 µM (inactive) | 18 µM (inactive) |  |  | 25.7 µM (inactive) | 18 µM (inactive) |
| CCCCCCCCC#CCCCCCCC(F)C(=O)O (stereo not drawn) | > 100 µM (inactive) | 43.1 µM (inactive) | > 100 µM (inactive) | > 100 µM (inactive) | > 100 µM (inactive) | > 100 µM (inactive) | > 100 µM (inactive) | > 100 µM (inactive) | > 100 µM (inactive) | > 100 µM (inactive) | > 100 µM (inactive) | > 100 µM (inactive) | > 100 µM (inactive) | > 100 µM (inactive) | > 100 µM (inactive) |  | > 100 µM (inactive) | > 100 µM (inactive) |  |
| COc1cc2c(cc1OC)C13CCN4CC5=CCOC6CC(=O)N2C1C6C5CC43O (stereo not drawn) | > 100 µM (inactive) | > 100 µM (inactive) | > 100 µM (inactive) |  | > 100 µM (inactive) | > 100 µM (inactive) | > 100 µM (inactive) | > 100 µM (inactive) | > 100 µM (inactive) | > 100 µM (inactive) | > 100 µM (inactive) | > 100 µM (inactive) | > 100 µM (inactive) | > 100 µM (inactive) |  | > 100 µM (inactive) | > 100 µM (inactive) | > 100 µM (inactive) | > 100 µM (inactive) |
| O=C(CCN1CCCC1)c1ccc(Oc2ccc(F)cc2)cc1 | 53.5 µM (inactive) | 93.3 µM (inactive) | 60.8 µM (inactive) | > 100 µM (inactive) | 32.5 µM (inactive) | 30.1 µM (inactive) | 29.9 µM (inactive) | 31 µM (inactive) | > 100 µM (inactive) |  | > 100 µM (inactive) | 30.9 µM (inactive) | > 100 µM (inactive) | > 100 µM (inactive) |  | 54.2 µM (inactive) |  | 45.1 µM (inactive) | 58.3 µM (inactive) |
| C=C(CCC=C(C)C)C1CC=C(C)CC1 (stereo not drawn) | 23.2 µM (inactive) | 29.2 µM (inactive) | 19.4 µM (inactive) | 16.3 µM (inactive) |  | 20.9 µM (inactive) | 19 µM (inactive) | 62.4 µM (inactive) | 19.3 µM (inactive) | 16.4 µM (inactive) | 35.6 µM (inactive) | 29.5 µM (inactive) | 36 µM (inactive) | > 100 µM (inactive) |  | 36.9 µM (inactive) | > 100 µM (inactive) |  | 18.5 µM (inactive) |
| c1csc(-c2csc(-c3ccsc3)c2)c1 |  | > 65.8 µM (inactive) | > 100 µM (inactive) | > 100 µM (inactive) | > 100 µM (inactive) | > 100 µM (inactive) | > 100 µM (inactive) | > 75.9 µM (inactive) | > 100 µM (inactive) | 61.5 µM (inactive) | > 100 µM (inactive) | > 100 µM (inactive) | > 100 µM (inactive) | > 100 µM (inactive) | 97.3 µM (inactive) | > 100 µM (inactive) | > 100 µM (inactive) | > 100 µM (inactive) | > 100 µM (inactive) |
| Oc1nc2c(c(-c3ccc(Br)cc3)n1)COC/C2=C\c1ccc(Br)cc1 | > 50 µM (inactive) | > 50 µM (inactive) | > 50 µM (inactive) | > 50 µM (inactive) | > 50 µM (inactive) | > 50 µM (inactive) | > 50 µM (inactive) | > 50 µM (inactive) | > 50 µM (inactive) | > 50 µM (inactive) | > 50 µM (inactive) | > 50 µM (inactive) | > 50 µM (inactive) | > 50 µM (inactive) |  | > 50 µM (inactive) | > 50 µM (inactive) | > 50 µM (inactive) | > 50 µM (inactive) |
| CN(C)CCC(C#N)(c1ccccc1)c1ccccc1 | > 100 µM (inactive) | > 100 µM (inactive) | 72.6 µM (inactive) | > 100 µM (inactive) | 33.7 µM (inactive) | 93.5 µM (inactive) | > 100 µM (inactive) | 25.9 µM (inactive) | > 100 µM (inactive) | 96.6 µM (inactive) | 93.5 µM (inactive) | > 100 µM (inactive) | 96.2 µM (inactive) | > 100 µM (inactive) |  | 73.3 µM (inactive) | 71.3 µM (inactive) | 17.5 µM (inactive) | 45 µM (inactive) |
| c1c[nH]c(-c2ccc(-c3ccc[nH]3)c3nsnc23)c1 | > 56.8 µM (inactive) | 0.0426 µM (active) | > 45.9 µM (inactive) | 28.5 µM (inactive) | > 26.3 µM (inactive) | 35.9 µM (inactive) | 0.217 µM (active) | > 46.9 µM (inactive) | 17.3 µM (inactive) | 53.6 µM (inactive) | > 51.6 µM (inactive) | 11.3 µM (inactive) | > 43.7 µM (inactive) | > 67.6 µM (inactive) |  | > 47.5 µM (inactive) | > 76.6 µM (inactive) | 0.456 µM (active) | > 70.1 µM (inactive) |
| CC(C)C1OC23CCCCC2C(C#N)(C#N)C1(C#N)C(=N)O3 (stereo not drawn) | 26.3 µM (inactive) | 27.5 µM (inactive) | 16 µM (inactive) |  | 14.5 µM (inactive) | 16.4 µM (inactive) | > 10 µM (inactive) | 12.8 µM (inactive) | 4.73 µM (inactive) |  | 34.8 µM (inactive) | 22.7 µM (inactive) | 20.2 µM (inactive) | 34.3 µM (inactive) |  | 20.6 µM (inactive) | 25.3 µM (inactive) | 13.4 µM (inactive) | 15.8 µM (inactive) |
| CCc1c2c(nc3ccc(O)cc13)-c1cc3c(c(=O)n1C2)COC(=O)[C@]3(O)CC [7-ETHYL-10-HYDROXYCAMPTOTHECIN] | < 0.001 µM (active) | 0.178 µM (active) | 0.402 µM (active) | < 0.001 µM (active) |  | 0.0791 µM (active) | 0.0212 µM (active) | < 0.001 µM (active) | < 0.001 µM (active) |  |  | 0.0116 µM (active) |  | < 0.001 µM (active) | < 0.001 µM (active) | < 0.001 µM (active) |  |  | 0.00206 µM (active) |
| O=C(O)CNc1ccc(Cl)c(Cl)c1 | 29.4 µM (inactive) | 23.1 µM (inactive) | 19.2 µM (inactive) | 24 µM (inactive) | 40.6 µM (inactive) | 33.6 µM (inactive) | 19.1 µM (inactive) | 27.4 µM (inactive) | 23.6 µM (inactive) | 16.3 µM (inactive) | 28.6 µM (inactive) | 25.9 µM (inactive) | 29 µM (inactive) | 34.5 µM (inactive) |  | 28.1 µM (inactive) | 30.4 µM (inactive) |  | 23.7 µM (inactive) |
| [N-]=[N+]=NI1OC(=O)c2ccccc21 | > 100 µM (inactive) | > 100 µM (inactive) | > 100 µM (inactive) | > 100 µM (inactive) | > 100 µM (inactive) | > 100 µM (inactive) | > 100 µM (inactive) | > 100 µM (inactive) |  | 17.3 µM (inactive) | > 100 µM (inactive) | > 100 µM (inactive) | > 100 µM (inactive) | > 100 µM (inactive) | 38.7 µM (inactive) | > 100 µM (inactive) | > 100 µM (inactive) | > 100 µM (inactive) |  |
| CC(C)=CCC[C@]1(C)CC[C@]2(C)C3CCC(=C(C)C)[C@@H](CCCO)[C@]3(C)CC[C@@]2(C)C1 (stereo partly drawn) | 34 µM (inactive) | 46.5 µM (inactive) | 36.7 µM (inactive) | 88.5 µM (inactive) | 40.2 µM (inactive) | > 100 µM (inactive) | 57.9 µM (inactive) | 30.3 µM (inactive) | 54.1 µM (inactive) | 17.8 µM (inactive) | > 100 µM (inactive) | 47.1 µM (inactive) | 30.5 µM (inactive) | > 100 µM (inactive) |  | > 100 µM (inactive) | > 100 µM (inactive) | 25.5 µM (inactive) | 89.3 µM (inactive) |
| CC(C)OC(=O)Nc1cccc(Cl)c1 [CHLORPROPHAM] | > 100 µM (inactive) | 63.1 µM (inactive) | > 100 µM (inactive) | > 100 µM (inactive) | 87.7 µM (inactive) | > 100 µM (inactive) | 70.1 µM (inactive) | > 100 µM (inactive) | 76.4 µM (inactive) |  | 91.4 µM (inactive) | > 100 µM (inactive) | > 100 µM (inactive) | > 100 µM (inactive) | > 100 µM (inactive) | > 100 µM (inactive) |  | > 100 µM (inactive) | > 100 µM (inactive) |
